Patent US5366980A, “Use of dextromethorphan and an oxidase inhibitor to treat dermatitis” (priority 1993, dated 1994)
Values joined by “and” are separate entries in the source; they are usually repeats but may differ in a detail not shown here. Identical values can stand only once. Like-named read-outs stand apart in the source and are kept apart here.

Experiments:
dermatitis = assay: Suppression of dermatitis (lichen planus; severe intermittent dermatitis) in patients; type: in vivo, human; details: patients treated with DM alone
Source text: Suppression of Dermatitis
During an initial examination, the Applicant discovered that patient two, a Caucasion person who was suffering from ALS, suffered from a severe dermatologic condition involving lesions which appear in relatively small purplish patches ("polygonal papules"). Their condition had recently been diagnosed as lichen planus. The etiology is unknown, although a variety of drugs reportedly can aggravate this condition. The patient reported that the lesions were severely itchy, and they had been suffering from it for roughly ten years. They had been prescribed a number of drugs (including various steroids such as prednisone) in an effort to control the itching; the most recent prescription was "Doxepin," a tricyclic antidepressant. None of those agents offered much relief.
The patient began an initial treatment of quinidine alone (150 mg/day) for a week.
The specialist carried out a preliminary test involving DM and quinidine on a person who suffered from severe but intermittent dermatitis.

ALS patients [1] = details: DM up to about 300 mg/day or higher; quinidine in prolonged QT interval; cited from earlier work
ALS patients [2] = assay: Tolerance and side effects in ALS patients and control subjects; type: in vivo, human; details: ALS patients and controls; drug(s) as labelled
Source text: (§1) All patients who became involved in the study initially received DM and/or quinidine alone, to ensure that these drugs would not adversely affect them. The drugs were coadministered only after a tolerance and/or dosage range for one drug had been established for a patient.
However, quinidine is not pharmaceutically acceptable by all patients.

emotional lability = assay: Suppression of emotional lability in ALS patients; type: in vivo, human
Source text: Emotional lability is a complex problem in which patients suffering from neurological damage (typically due to a stroke or head injury or a neurologic disease such as ALS or Alzheimer's disease) become unable to control spasmodic emotional outbursts such as explosive laughing or uncontrollable weeping. This discovery involving emotional lability is discussed in U.S. Pat. No. 5,206,248, which was also invented by the Applicant; the contents of that patent are incorporated by reference.
as §1

debrisoquin hydroxylase [3] = assay: Urinary DM/DR ratio after oral dextromethorphan without and with quinidine (Example 1); type: in vivo, human; details: ALS patients
Method: Since the research that led to this invention was done by a neurologist who was initially interested in finding out whether DM might be able to retard the progress of ALS, the initial studies were done on patients suffering from ALS, most of whom are adults more than 50 years old.
Six patients suffering from ALS were administered orally a single 60 mg dextromethorphan dose. Several hours later, a urine sample was collected, and the urine concentrations of dextromethorphan (DM) and dextrorphan (DR) were measured as described below to determine a DM/DR ratio. […] In a different week, 60 mg of DM and 150 mg of quinidine were orally administered to the same patients, and urinary DM and DR levels and DM/DR ratios were determined again.
DM and DR urinary levels without quinidine were determined by adding […] of thebaine as an internal standard to 1 mL of urine. To this was added 2000 units of beta-glucuronidase in 1 mL of acetate buffer (0.1M, pH 5.0). The mixture was incubated for 18 hours at 37° C. and then extracted by adding 1 mL of phosphate buffer (pH 12, 0.10M) and 7 mL of n-butanol/hexane (10:90 v/v). After mixing and centrifugation, the organic layer was transferred to a clean tube and acidified with 400 uL of 0.01 N HCL. 20 microliters (uL) of aqueous phase was injected into a high performance liquid chromatography (HPLC) system. The HPLC used a phenyl column equilibrated with a mobile phase of acetonitrile:water (51:49, v/v) containing 10 mM KHPO4, 10 mM hexane sulfonic acid, pH 4.0 (flow rate 1.2 mL/min). Detection of thebaine, dextromethorphan and dextrorphan was achieved by fluorescence (Kratos FS-980 Fluorometer) with an excitation wavelength of 228 nm and no emission cutoff filter.
A gas chromatograph/mass spectroscopy (gc/ms) assay was employed for determining dextromethorphan and dextrorphan levels in the presence of quinidine. Briefly, 0.5 ml urine samples were spiked with 500 nanograms (ng) of dimethacrine. The urine pH was adjusted to 5.0 with 0.1M acetate buffer (usually about 1.0 ml), and beta-glucuronidase was added (2000 units/ml urine). […]

[4] = Plasma concentration of DM 10-12 hours after oral dosing, without and with quinidine (Examples 2 and 3); type: in vivo, human; details: 10-12 hours, one value per patient
Method: Plasma Concentrations of DM
Five patients were orally administered 120 mg of DM, with no co-administration of quinidine. Between 10 and 12 hours later, blood was sampled, blood plasma was isolated by centrifugation, and the plasma was analyzed to determine the DM concentration using the thebaine/HPLC method.
During a different week, the same patients were orally administered 60 mg of DM (half the control dosage) and 150 mg of quinidine. Between 10 and 12 hours later, blood was sampled and the plasma was analyzed for DM using thebaine/HPLC.
Additional studies were undertaken using a range of dosages of DM to establish a dose-response curve that correlates the quantity of DM orally administered to a patient with blood plasma concentrations 10 to 12 hours later (determined as described in Example 2). All patients received 150 mg of quinidine daily. The results of those studies are shown in graphical form in FIG. 2, with mean values shown as open squares and standard deviation ranges shown by vertical bars. The ascending line through the median values is a linear approximation; a curve based on more extensive data would probably show a horizontal asymptote.

[5] = system: neuronal calcium channels; details: reportedly, Carpenter et al 1988, cited from earlier work
[6] = system: N-methyl-D-aspartate (NMDA) receptors; details: reportedly; cited from earlier work
debrisoquin hydroxylase [7] = assay: Urinary DM/DR ratio with other antioxidants in specific patients (Example 5); details: urine, HPLC; preliminary; one value per patient
Source text: The second method involves sampling body fluids to compare the concentrations of DM and its primary metabolite, dextrorphan (DR). Although blood concentrations can be directly evaluated by drawing blood samples if desired, an easier and painless approach is to analyze urine samples. Blood or urine samples can be processed using methods such as high performance liquid chromatography (HPLC), as described in Example 5. […] The height of each peak, or the area under each peak, will indicate the quantity of each compound in the blood or urine sample. The heights of the DM and DR peaks are then divided, to determine the DM/DR ratio. The ratio which occurs after administration of a candidate antioxidant drug is compared to the DM/DR ratio in the same patient under control conditions (i.e., before administration of any antioxidant).
Preliminary Analysis of Other Antioxidants
To further evaluate that possibility, the Applicant arranged for chemical analyses of urine samples, using HPLC, in the labs of an independent investigator.

[8] = most people; cited from earlier work
sigma receptors = details: reportedly; cited from earlier work
ALS = assay: Effect on progress of ALS; type: in vivo, human; details: loss of strength, slurring of speech, other muscular symptoms
Source text: As mentioned above, DM is being studied as a possible treatment for neurodegenerative diseases such as Parkinson's disease, Alzheimer's disease, and ALS. Accordingly, the Applicant, a neurologist who specializes in working with ALS patients, undertook a study of DM to determine whether it might be able to retard the progress of ALS.
However, during the course of that study, other important findings emerged, as discussed below.

COc1ccc2c(c1)[C@@]13CCCC[C@H]1[C@@H](C2)N(C)CC3 [DM, (+)-3-methoxy-N-methylmorphinan]
Therapeutic benefits (emotional lability and dermatitis) (dermatitis): not detectable | Adverse effects (general knowledge) (ALS patients [1]): any adverse effects (such as dizziness or nausea) usually disappear quickly when the dosage is lowered | Adverse side effects (ALS patients [2]): no ill effects | Reduction of emotional lability symptoms (emotional lability): not observed in any patients who received DM alone | Metabolism of DM in ALS patients vs healthy adults (debrisoquin hydroxylase [3]): No difference in the metabolism | DM plasma level, with quinidine ([4]; 60 mg DM once oral + quinidine 150 mg): 33 ng/mL and 29.7 ng/mL and 29.0 ng/mL and 28.8 ng/mL and 45.6 ng/mL | DM plasma level, no quinidine ([4]; 120 mg/day DM oral, quinidine dose 0): 9.3 ng/mL and 16.5 ng/mL and 6.05 ng/mL | Activity at neuronal calcium channels ([5]; listed as Dextromethorphan): suppress neural activity mediated by neuronal calcium channels | Activity at neuronal calcium channels ([5]; listed as dextromethorphan): calcium channel antagonists | Activity at NMDA receptors [6]: NMDA antagonists | DM/DR ratio, no antioxidant (debrisoquin hydroxylase [7]): 0.02 and 0.00 and 0.06 and 0.03 | Disappearance from the bloodstream [8]: disappears fairly rapidly from the bloodstream | Activity at sigma receptors (sigma receptors): sigma agonists | Slowing of progressive ALS symptoms (ALS): not able to slow down the progressive loss of strength, slurring of speech, and other muscular symptoms
